Measurements reported in patent US20110166132A1, “Gamma Secretase Modulators” (Amgen Inc., priority 2007, published 2011).

Target: T1, gamma secretase (Homo sapiens, UniProt P49768)
T1 construct: HEK293 cells stably expressing full length Amyloid Precursor Protein (APP); endogenous in cells; host or cells: HEK 293 cells stably expressing full length APP
Test: GSM cell-based assay: Aβ 42 inhibition or reduction in HEK 293 cells over-expressing APP (sandwich ELISA)
Details: approximate IC50; HEK293 cells stably expressing full length APP, 24 hours incubation, 10-point dose response starting at 10 μM
Description: GSM cell-based assays were designed to measure the modulation of Aβ 42 from HEK 293 cells over-expressing APP.
Three simultaneous cell-based assays, namely Aβ 42 inhibition or reduction, Aβ 40 inhibition or reduction and a measurement of cell viability of the cells from which the Aβ 42/40 readout was obtained, together gave an interpretation of gamma secretase modulation (GSM). The assays measure Aβ 42 and Ab 40 from conditioned medium of test compound treated HEK 293 cells.
HEK293 cells stably expressing full length Amyloid Precursor Protein (APP) were plated at a density of 100K cells/well in 96 well plates (Costar). The cells were cultivated for 6 hours at 37° C. and 5% CO2 in DMEM supplemented with 10% FBS. The test compounds were then added to cells in 10-point dose response concentrations with the starting concentration being 10 μM. The compounds were diluted from stock solutions in DMSO and the final DMSO concentration of the test compounds on cells was 0.1%. After 24 hours of incubation with the test compounds the supernatant conditioned media was collected and the Aβ 42, Aβ 40 levels were determined using a sandwich ELISA. A cell viability test (CellTiter-Blue Cell Viability assay, Promega) on the cells from which the conditioned medium was harvested for Aβ 42 or Aβ 40 readouts gave an indication of cell survivability as a possible reason for false positive Aβ 42 or 40 reduction or inhibition readout. The IC50 of the compound (for either Aβ 42 or Aβ 40) was calculated from the percent of control or percent inhibition of Aβ 42 or Aβ 40 as a function of the concentration of the test compound.
The sandwich ELISA to detect Aβ 42 or Aβ 40 was performed in 96 well microtiter plates, which were pre-treated with goat anti-rabbit IgG (Pierce). The capture and detecting antibody pair that were used to detect Aβ 42 and Aβ 40 from cell supernatants were rabbit monoclonal Antibody 42 (RabMAb 42) and affinity purified polyclonal Antibody 40 pAB40 (Biosource) as capture antibodies and biotinylated 6E10 (Signet Labs Inc.) as detection antibody. The optimal concentration for RabMAb 42 was 1 μg/ml in Superblock/TBS (Pierce) that was supplemented with 0.05% Tween 20 (Sigma). The optimal concentration for the pAb40 antibody was 3 μg/ml in Superblock/TBS (Pierce) that was supplemented with 0.05% Tween 20 (Sigma). Optimal concentration for the detection antibody 6E10-biotinylated was 0.5 μg/ml in Superblock/TBS (Pierce) that had been supplemented with 2% normal goat serum and 2% normal mouse serum.
Cellular supernatants were incubated with the capture antibody for 16-20 hours at 4° C., followed by 3 wash steps in TBS-tween (0.05%). The detecting antibody incubation was for 3 hours at 4° C., again followed by the wash steps as described previously. The final readout of the ELISA is Time-Resolved Fluorescence (counts per minute) using Delfia reagents Streptavidin-Europium and Enhancement solutions (Perkin Elmer) and the EnVision Multilabel plate reader (Perkin Elmer).

IC50	SMILES
256 nM	Cc1cc(-c2ccc(NC(=O)[C@H](C)c3cc(C(F)(F)F)cc(C(F)(F)F)c3)cc2)ccn1 [Cpd 1, (2R)-2-(3,5-bis(trifluoromethyl)phenyl)-N-(4-(2-methyl-4-pyridinyl)phenyl)-propanamide]
790 nM	Cc1cc(-c2ccc(NC(=O)Cc3cccc(Cl)c3)cc2)ccn1 [Cpd 8, 2-(3-chlorophenyl)-N-(4-(2-methyl-4-pyridinyl)phenyl)acetamide]
1380 nM	COc1ccc(Cl)cc1C(=O)Nc1ccc(-c2ccnc(C)c2)cc1 [Cpd 10]
883 nM	Cc1cc(-c2ccc(NC(=O)Cc3cccc4ccccc34)cc2)ccn1 [Cpd 15, N-(4-(2-methyl-4-pyridinyl)phenyl)-2-(1-naphthalenyl)acetamide]
473 nM	Cc1cc(-c2ccc(NC(=O)Cc3ccc4c(c3)OCO4)cc2)ccn1 [Cpd 16, 2-(1,3-benzodioxol-5-yl)-N-(4-(2-methyl-4-pyridinyl)phenyl)acetamide]
557 nM	Cc1cc(-c2ccc(NC(=O)Cc3ccc(-c4ccccc4)cc3)cc2)ccn1 [Cpd 19, 2-(4-biphenylyl)-N-(4-(2-methyl-4-pyridinyl)phenyl)acetamide]
2610 nM	Cc1cc(-c2ccc(NC(=O)c3cn4c(C)cccc4n3)cc2)ccn1 [Cpd 20]
1700 nM	Cc1cc(-c2ccc(NC(=O)[C@@H](C)c3ccccc3)cc2)ccn1 [Cpd 21, (2S)-N-(4-(2-methyl-4-pyridinyl)phenyl)-2-phenylpropanamide]
1580 nM	Cc1cc(-c2ccc(NC(=O)c3cc(C4CC4)on3)cc2)ccn1 [Cpd 22]
1970 nM	Cc1cc(-c2ccc(NC(=O)C(C)c3cccc(Cl)n3)cc2)ccn1 (centres unmarked) [Cpd 24, 2-(6-chloro-2-pyridinyl)-N-(4-(2-methyl-4-pyridinyl)phenyl)propanamide]
2450 nM	Cc1cc(-c2ccc(NC(=O)Cc3cncc(Br)c3)cc2)ccn1 [Cpd 27, 2-(5-bromo-3-pyridinyl)-N-(4-(2-methyl-4-pyridinyl)phenyl)acetamide]
854 nM	Cc1cc(-c2ccc(NC(=O)c3cccc(Oc4ccccc4)c3)cc2)ccn1 [Cpd 31]
2930 nM	COc1cccc(C(=O)Nc2ccc(-c3ccnc(C)c3)cc2)c1 [Cpd 34]
4280 nM	COC1CCCC(C(=O)Nc2ccc(-c3ccnc(C)c3)cc2)C1 (centres unmarked) [Cpd 35]
567 nM	COc1ccc(C(=O)Nc2ccc(-c3ccnc(C)c3)cc2)cc1Cl [Cpd 37]
2370 nM	Cc1cc(-c2ccc(NC(=O)Cc3ccc(C)s3)cc2)ccn1 [Cpd 38, N-(4-(2-methyl-4-pyridinyl)phenyl)-2-(5-methyl-2-thiophenyl)acetamid]
474 nM	Cc1cc(-c2ccc(NC(=O)C(c3ccccc3)C(C)C)cc2)ccn1 (centres unmarked) [Cpd 39, 3-methyl-N-(4-(2-methyl-4-pyridinyl)-phenyl)-2-phenylbutanamide]
> 10000 nM	Cc1cc(-c2ccc(NC(=O)c3cccc(N(C)C)c3)cc2)ccn1 [Cpd 46]
> 10000 nM	Cc1cc(-c2ccc(NC(=O)C(C)(C)c3ccc(Cl)cc3)cc2)ccn1 [Cpd 48, 2-(4-chlorophenyl)-2-methyl-N-(4-(2-methyl-4-pyridinyl)phenyl)propanamide]
> 10000 nM	Cc1cc(-c2ccc(NC(=O)c3cc(Cl)nc(Cl)c3)cc2)ccn1 [Cpd 51]
> 10000 nM	Cc1cc(-c2ccc(NC(=O)C3CCCO3)cc2)ccn1 (centres unmarked) [Cpd 52]
> 10000 nM	Cc1cc(-c2ccc(NC(=O)C3CC(=O)N(c4ccccc4)C3)cc2)ccn1 (centres unmarked) [Cpd 53]
> 10000 nM	Cc1cc(-c2ccc(NC(=O)C3CC3)cc2)ccn1 [Cpd 54]
> 10000 nM	CC(=O)N1CCC(C(=O)Nc2ccc(-c3ccnc(C)c3)cc2)CC1 [Cpd 55]

IC50	SMILES
> 10000 nM	Cc1cc(-c2ccc(NC(=O)C3CC(=O)N(C4CCCCC4)C3)cc2)ccn1 (centres unmarked) [Cpd 60]
108 nM	Cc1cc(-c2ccc(NC(=O)C(C)c3ccc4c(c3)[nH]c3ccc(Cl)cc34)cc2)ccn1 (centres unmarked) [Cpd 65, 2-(6-chloro-9H-carbazol-2-yl)-N-(4-(2-methyl-4-pyridinyl)phenyl)propanamide]
205 nM	COc1ccc2cc([C@@H](C)C(=O)Nc3ccc(-c4ccnc(C)c4)cc3)ccc2c1 [Cpd 66, (2R)-2-(6-methoxy-2-naphthalenyl)-N-(4-(2-methyl-4-pyridinyl)phenyl)propanamide]
1180 nM	Cc1cc(-c2ccc(NC(=O)Cc3n[nH]c4ccc(Br)cc34)cc2)ccn1 [Cpd 79, 2-(5-bromo-1H-indazol-3-yl)-N-(4-(2-methyl-4-pyridinyl)phenyl)acetamide]
> 10000 nM	Cc1cc(-c2ccc(NC(=O)c3cc(Cl)cc(Cl)c3)c(F)c2)ccn1 [Cpd 86]
461 nM	Cc1cc(-c2ccc(NC(=O)Cc3cc(C(F)(F)F)cc(C(F)(F)F)c3)cc2)ccn1 [Cpd 87, 2-(3,5-bis(trifluoromethyl)phenyl)-N-(4-(2-methyl-4-pyridinyl)phenyl)acetamide]
> 10000 nM	Cc1cc(-c2ccc(NC(=O)Cc3ccccn3)cc2)ccn1 [Cpd 88, N-(4-(2-methyl-4-pyridinyl)phenyl)-2-(2-pyridinyl)acetamide]
> 10000 nM	Cc1cc(-c2ccc(NC(=O)Cc3c(C)noc3C)cc2)ccn1 [Cpd 89, 2-(3,5-dimethyl-4-isoxazolyl)-N-(4-(2-methyl-4-pyridinyl)phenyl)acetamide]
> 10000 nM	Cc1cc(-c2ccc(NC(=O)c3ccccc3-c3ccccc3)cc2)ccn1 [Cpd 91]
1730 nM	Cc1cccc([C@H](CC(C)C)C(=O)Nc2ccc(-c3ccnc(C)c3)cc2)c1 [Cpd 105, (2S)-4-methyl-2-(3-methylphenyl)-N-(4-(2-methyl-4-pyridinyl)phenyl)pentanamide]
> 10000 nM	Cc1cc(-c2ccc(NC(=O)Cc3c(F)cccc3Cl)cc2)ccn1 [Cpd 106, 2-(2-chloro-6-fluorophenyl)-N-(4-(2-methyl-4-pyridinyl)phenyl)acetamide]
3270 nM	Cc1cc(-c2ccc(NC(=O)Cc3ccc(OC(F)(F)F)cc3)cc2)ccn1 [Cpd 110, N-(4-(2-methyl-4-pyridinyl)phenyl)-2-(4-(trifluoromethoxy)phenyl)acetamide]
3300 nM	Cc1cc(-c2ccc(NC(=O)Cc3ccc(OCc4ccccc4)cc3)cc2)ccn1 [Cpd 111, 2-(4-(benzyloxy)phenyl)-N-(4-(2-methyl-4-pyridinyl)phenyl)acetamide]
5780 nM	Cc1cc(-c2ccc(NC(=O)Cc3ccc(Oc4ccccc4)cc3)cc2)ccn1 [Cpd 112]
> 10000 nM	Cc1cc(-c2ccc(NC(=O)Cc3ccccc3OCc3ccccc3)cc2)ccn1 [Cpd 113, 2-(2-(benzyloxy)phenyl)-N-(4-(2-methyl-4-pyridinyl)phenyl)acetamide]
4140 nM	Cc1cc(-c2ccc(NC(=O)Cc3ccc4c(c3)CCO4)cc2)ccn1 [Cpd 116, 2-(2,3-dihydro-1-benzofuran-5-yl)-N-(4-(2-methyl-4-pyridinyl)phenyl)acetamide]
3860 nM	Cc1cc(-c2ccc(NC(=O)C3CCc4ccccc43)cc2)ccn1 (centres unmarked) [Cpd 117]
> 3330 nM	Cc1cc(-c2ccc(NC(=O)C3CC(=O)c4ccccc43)cc2)ccn1 (centres unmarked) [Cpd 120]
328 nM	Cc1cc(-c2ccc(NC(=O)[C@H](C)c3ccc4c(c3)[nH]c3ccc(Cl)cc34)cc2)ccn1 [Cpd 122, (2R)-2-(6-chloro-9H-carbazol-2-yl)-N-(4-(2-methyl-4-pyridinyl)phenyl)propanamide]
282 nM	Cc1cc(-c2ccc(NC(=O)C(CC3CCC3)c3cccc(Br)c3)cc2)ccn1 (centres unmarked) [Cpd 124, 2-(3-bromophenyl)-3-cyclobutyl-N-(4-(2-methyl-4-pyridinyl)phenyl)propanamide]
272 nM	Cc1cc(-c2ccc(NC(=O)Cc3ccc4oc(-c5ccccc5)nc4c3)cc2)ccn1 [Cpd 125, N-(4-(2-methyl-4-pyridinyl)phenyl)-2-(2-phenyl-1,3-benzoxazol-5-yl)acetamide]
129 nM	Cc1cc(-c2ccc(NC(=O)[C@@H](CC(C)C)c3cccc(-c4ccc(N5CCOCC5)cc4)c3)cc2)ccn1 [Cpd 127, (2S)-4-methyl-N-(4-(2-methyl-4-pyridinyl)phenyl)-2-(4′-(4-morpholinyl)-3-biphenylyl)pentanamide]
> 10000 nM	Cc1cc(-c2ccc(NC(=O)C(CCF)c3cccc(Br)c3)cc2)ccn1 (centres unmarked) [Cpd 129, 2-(3-bromophenyl)-4-fluoro-N-(4-(2-methyl-4-pyridinyl)phenyl)butanamide]
